According to PubChem BioAssay (NCI):
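Step 1: Grow cells in 96-well plates. Step 2: Expose to compound for 48 hours at 5 concentrations. Step 3: Interpolate endpoints linearly; if unreached, use highest concentration. At the GI50, growth is halved. TGI is the concentration that stops growth completely.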

What was measured:
Assay in all cases: NCI-60 cell line screen, 48 h
[1] = test system: NCI-H522 lung
[2] = test system: HCC-2998 colon
[3] = test system: A498 renal
[4] = test system: MOLT-4 leukemia
[5] = test system: SF-539 CNS
[6] = test system: PC-3 prostate
[7] = test system: UACC-62 melanoma
[8] = test system: TK-10 renal
[9] = test system: SF-295 CNS
[10] = test system: NCI/ADR-RES ovarian

Compound | TGI [1] [µM] | TGI [2] [µM] | TGI [3] [µM] | TGI [4] [µM] | TGI [5] [µM] | TGI [6] [µM] | TGI [7] [µM] | TGI [8] [µM] | TGI [9] [µM] | TGI [10] [µM] | GI50 [1] [µM] | GI50 [2] [µM] | GI50 [3] [µM] | GI50 [4] [µM] | GI50 [5] [µM] | GI50 [6] [µM] | GI50 [7] [µM] | GI50 [8] [µM] | GI50 [9] [µM] | GI50 [10] [µM]
O=[N+]([O-])c1ccc(N=Nc2c(O)[nH]c3ccccc23)cc1 | 34.6 | > 100 | 39.5 | > 100 | 9.36 | > 100 | > 100 | > 51.2 | 48.7 | 48.5 | – | – | – | – | – | – | – | – | – | –
CCC(=O)c1ccc2c(c1)N(CCCN1CCN(CCO)CC1)c1ccccc1S2 | 32.4 | 26.1 | 22.3 | 26.8 | 27 | 25.2 | 4.73 | 27.5 | 25.9 | 29.4 | 15.9 | 11.8 | 8.33 | 11 | 12.2 | 11.5 | 2.2 | 13.9 | 12.2 | 14.7
COc1ccc(-c2csc3c2-n2cccc2C3=O)cc1O | 0.0434 | 8.71 | 13.5 | 6.1 | > 100 | > 100 | 49.2 | 98.7 | > 100 | > 100 | < 0.01 | 0.454 | 1.13 | 0.132 | 0.0226 | 0.265 | 0.387 | 17.6 | 0.5 | 0.0143
COc1cc(/C=C2\C(=O)Nc3ccccc32)cc(OC)c1OC | 90.4 | 32.8 | > 100 | 71.3 | > 100 | > 100 | > 100 | > 100 | > 100 | 45.6 | 14.1 | 12.4 | 27.4 | 12 | 27.9 | 18.8 | 14.4 | 29.4 | 28.3 | 11.6
COc1ccc2c(c1)[C@@]1(C)CCC3c4ccc(O)cc4CCC3C1C2 (stereo partly specified) | 37.6 | 32.3 | 33.3 | 64.2 | 38.9 | 42 | 32.9 | 29 | 33.8 | 29.3 | 16.4 | 18 | 18.2 | 17.8 | 20.3 | 20.1 | 17.6 | 14 | 17.3 | 14.4
COc1cc2ncn(-c3cc(OCc4ccccc4S(C)(=O)=O)c(C#N)s3)c2cc1OC | > 25 | > 25 | > 25 | > 25 | > 25 | > 25 | > 25 | > 25 | > 25 | > 25 | > 25 | > 25 | > 25 | > 25 | > 25 | > 25 | > 25 | > 25 | > 25 | > 25
COc1ccc2c(c1)C(=O)c1c-2n(CCCN2CCOCC2)c(=O)c2cc([N+](=O)[O-])ccc12 | – | 0.153 | 0.117 | – | < 0.01 | > 31.9 | 0.0291 | 17.7 | – | < 0.0279 | < 0.01 | < 0.01 | < 0.01 | < 0.01 | < 0.01 | < 0.01 | < 0.01 | 0.0623 | < 0.01 | < 0.01
O=C1CC/C(=C\COc2ccc3ccc(=O)oc3c2)O1 | 5.83 | 35.6 | 44 | > 100 | 19.2 | 18.3 | 24.7 | 17.7 | > 100 | 43 | 1.76 | 17 | 16.8 | 6.41 | 2.62 | 1.68 | 10.8 | 2.83 | 43.5 | 14.9
COc1ccc(-n2c(C)nc3c(c(C)nn3-c3ccccc3)c2=O)cc1 | 9.1 | > 100 | 0.0843 | > 40.4 | – | > 100 | > 100 | > 100 | > 100 | > 100 | 0.0375 | 0.191 | 0.0264 | 0.196 | 0.0471 | 0.0603 | 0.0426 | 9.02 | 0.0594 | 0.0534
